In patent US20250289786A1, “CHLORINATED MONOCARBONYL CURCUMIN COMPOUNDS, PREPARATION METHOD, AND APPLICATION” (Southwest Medical University, priority 2024, published 2025):

Assays:
[1] = system: PC12 cells; test: Inhibition of H2O2-induced oxidative damage in PC12 cells; assay type: cell-based, rat; details: for effect on survival of H2O2-damaged PC12 cells: 24 h, in words
Description: After 24 hours of incubation in the incubator, the relative proliferation rates of the cells were calculated according to the method under Section 2.1.

[2] = system: PC12 cells; test: Inhibition of corticosterone (CORT)-induced PC12 cell damage; assay type: cell-based, rat; details: 24 h; for effect on viability of CORT-damaged PC12 cells: 3.75-60 μM drug with 514.6 μM CORT, in words
[3] = system: CUMS depression model mice; test: Forced swimming test in CUMS depression model mice; assay type: in vivo, C57BL/6J mice; details: 10 mg/kg oral once a day
Description: (§1) After one week of adaptive feeding, the newly purchased mice were divided into a blank group and CUMS model group. The mice in the blank group were not subjected to behavioral intervention and were fed normally. Mice in the model group were given 1-2 unpredictable behavioral stimuli every day. […] When the same stimulation is continuous, the stimulation method is changed to ensure that the same stimulation is not continuous, and the model construction period is 42 days.

[4] = system: CUMS depression model mice; test: Sucrose preference test in CUMS depression model mice; assay type: in vivo, C57BL/6J mice; details: 10 mg/kg oral once a day, 14th day, in words
Description: as §1

[5] = system: CUMS depression model mice; test: Open field test in CUMS depression model mice; assay type: in vivo, C57BL/6J mice; details: 10 mg/kg oral once a day, 28 days; model 327.22±161.39 cm
Description: as §1

[6] = system: Nrf2, HO-1, BDNF, and TrkB in the hippocampus; test: Western blot of hippocampal proteins in CUMS depression model mice; assay type: in vivo; details: in words
[7] = Solubility detection of CAK01-CAK07; assay type: physicochemical
Description: The chlorinated monocarbonyl curcumin compounds CAK01-CAK07 prepared under the conditions of Example 1 were taken for nuclear magnetic resonance, mass spectrometry, solubility, and melting point detection.

[8] = ABTS free radical capture ability; assay type: biochemical; details: 20 min reaction in the dark
Description: 66.2 mg of K2S2O8 was weighed and placed in a 100 mL volumetric flask, pure water was added to the scale line to prepare a 2.45 mmol/L K2S2O8 solution. 192 mg of ABTS was accurately weighed and placed in a 25 mL volumetric flask, and the newly prepared K2S2O8 solution was added for dissolving and constant volume dilution, after standing in the dark for 20 h, the ABTS mother liquor was obtained. Before use, to make the measured value more accurate, the ABTS mother liquor needs to be diluted with a PBS solution of pH7.4 until the absorbance range of the ABTS working solution at 734 nm is 0.70±0.02.
Drug concentration screening: To avoid the complete removal of free radicals by excessive drug concentration and the inability to compare the ability to capture ABTS free radicals, a preliminary screening of drug concentration is required before the formal test. A gradient concentration of compound solution was prepared, and a gradient concentration of Vit C solution was prepared as a positive control. A total of 450 μL of ABTS working solution was accurately absorbed into a 1.5 mL EP tube, and 150 μL of the gradient solution of each group of drugs was added, after 20 min of reaction in the dark, 150 μL of the reaction solution was taken and placed in a 96-well plate, the absorbance was measured by a microplate reader. Three duplicate wells were set for each concentration, and the drug concentration with absorbance between 0.2-0.7 was selected for subsequent determination.
Determination operation: After the drug concentration screening was completed, 7 concentration gradient groups were set within this concentration range. A total of 450 μL of ABTS working solution was accurately absorbed into a 1.5 mL EP tube, and 150 μL of the gradient solution of each group of drugs was added. After 20 min of reaction in the dark, 150 μL of the reaction solution was taken and placed in a 96-well plate, the absorbance was measured by a microplate reader. Three duplicate wells were set for each concentration, the positive control group was a gradient solution of Vit C, and the blank control group was an equal volume of anhydrous ethanol.

[9] = system: PC12 cells; test: MTT toxicity (safety evaluation) on PC12 nerve cells; assay type: cell-based; details: for cytotoxicity to PC12 cells: 3.75-60 μM, 24 h and 48 h, in words
Description: The toxicity of each drug to PC12 cells was determined by MTT assay. The principle of the MTT colorimetric method: there is succinate dehydrogenase in the mitochondria of living cells, which can make exogenous MTT become blue-purple crystal formazan insoluble in water, this phenomenon cannot be observed in dead cells. The blue-purple crystal formazan can be dissolved by DMSO, and the absorbance value is measured by a microplate reader at a wavelength of 490 nm, which in turn reflects the number of living cells. […] The operation method is as follows:
The cells were resuscitated with DMEM high glucose medium containing 10% fetal bovine serum and cultured in a 5% CO2 cell incubator at 37° C., when the cells grew to the logarithmic growth phase, they were inoculated into a 96-well plate and cultured for 24 hours, each well was added with 100 μL of each compound solution at the corresponding gradient concentration (60, 30, 15, 7.5, 3.75 μM), after incubation in the incubator for 24 h or 48 h, 20 μL of MTT was added to continue incubation for 4 h, the supernatant was discarded and 150 μL of DMSO was added to dissolve the blue-purple crystals, after shaking for 10 min, the cell viability was detected by a microplate reader, and classified according to the cytotoxicity standard. The relevant calculation formula is as follows: […]

Structure (SMILES)	effect on viability of CORT-damaged PC12 cells [2]	solubility [7] [mg/100 g]	IC50 values of ABTS captured [8] [µg/mL]	Rank (cytotoxicity standard) 24 h ([9]; PC12, 3.75 μM)	Relative growth rate (%) 24 h ([9]; PC12, 3.75 μM) [%]	Rank (cytotoxicity standard) 48 h ([9]; PC12, 3.75 μM)	Relative growth rate (%) 48 h ([9]; PC12, 3.75 μM) [%]	Rank (cytotoxicity standard) 24 h ([9]; PC12, 7.5 μM)	Relative growth rate (%) 24 h ([9]; PC12, 7.5 μM) [%]	Rank (cytotoxicity standard) 48 h ([9]; PC12, 7.5 μM)	Relative growth rate (%) 48 h ([9]; PC12, 7.5 μM) [%]	Rank (cytotoxicity standard) 24 h ([9]; PC12, 15 μM)	Relative growth rate (%) 24 h ([9]; PC12, 15 μM) [%]	Rank (cytotoxicity standard) 48 h ([9]; PC12, 15 μM)	Relative growth rate (%) 48 h ([9]; PC12, 15 μM) [%]	Rank (cytotoxicity standard) 24 h ([9]; PC12, 30 μM)	Relative growth rate (%) 24 h ([9]; PC12, 30 μM) [%]	Rank (cytotoxicity standard) 48 h ([9]; PC12, 30 μM)	Relative growth rate (%) 48 h ([9]; PC12, 30 μM) [%]	Rank (cytotoxicity standard) 24 h ([9]; PC12, 60 μM)	other results
CNCCC(Oc1ccc(C(F)(F)F)cc1)c1ccccc1 (centres unmarked) [Flu, fluoxetine, reference compound]	did not show the effect of restoring CORT-damaged cells																				cell survival rate ([1]; 7.5 μM drug with 585.8 μM H2O2, 24 h): 41.92±0.66%; forced swimming test, depressive symptoms / immobility time ([3]; 14th day, in words): did not show significant improvement in depressive symptoms; immobility time in the forced swimming test ([3]; 28 days): 130.42 ± 59.96 s; sucrose preference rate [4]: failed to significantly increase the sucrose preference rate; overall activity distance in the open field test [5]: 705.43±159.14 cm; expression of Nrf2, HO-1, BDNF and TrkB [6]: also increased
O=C1/C(=C/c2cc(Cl)c(O)c(Cl)c2)CNC/C1=C\c1cc(Cl)c(O)c(Cl)c1 [CAK01, 3,5-bis ((E)-3,5-dichloro-4-hydroxybenzylidene) piperidin-4-one]	did not show the potential to restore cell viability	0.17	79.62	0	104.22 ± 1.99	1	99.22 ± 1.65	0	101.17 ± 2.97	0	100.73 ± 3.19	1	99.46 ± 2.16	1	99.33 ± 1.79	0	101.62 ± 3.23	0	100.73 ± 2.88	0	cytotoxicity to PC12 cells [9]: no significant cytotoxicity; Relative growth rate (%) 24 h ([9]; PC12, 60 μM): 104.04 ± 1.43%; Rank (cytotoxicity standard) 48 h ([9]; PC12, 60 μM): 1; Relative growth rate (%) 48 h ([9]; PC12, 60 μM): 85.41 ± 3.45%; effect on survival of H2O2-damaged PC12 cells ([1]; drug concentration below 30 μM): increased the survival rate of cells in a concentration-dependent manner
CCN1C/C(=C\c2cc(Cl)c(O)c(Cl)c2)C(=O)/C(=C/c2cc(Cl)c(O)c(Cl)c2)C1 [CAK03, 3,5-bis ((E)-3,5-dichloro-4-hydroxybenzylidene)-1-ethylpiperidin-4-one]		0.08	46.56	1	96.25 ± 0.78	1	98.96 ± 1.23	1	87.65 ± 5.86	1	94.59 ± 1.02	1	88.25 ± 5.62	1	89.84 ± 0.82	1	82.96 ± 2.83	1	95.25 ± 9.43	1	Relative growth rate (%) 24 h ([9]; PC12, 60 μM): 77.51 ± 4.22%; Rank (cytotoxicity standard) 48 h ([9]; PC12, 60 μM): 3; Relative growth rate (%) 48 h ([9]; PC12, 60 μM): 30.33±6.54%; effect on survival of H2O2-damaged PC12 cells ([1]; drug concentration below 30 μM): increased the survival rate of cells in a concentration-dependent manner; relative cell proliferation rate ([2]; 15 μM drug with 514.6 μM CORT): 59.15±0.51%; relative cell proliferation rate ([2]; 60 μM drug with 514.6 μM CORT): 59.92±1.53%
COc1cc(/C=C2\CN(C(C)C)C/C(=C\c3cc(Cl)c(O)c(OC)c3)C2=O)cc(Cl)c1O [CAK05, 3,5-bis ((E)-3-chloro-4-hydroxy-5-methoxybenzylidene)-1-isopropylpiperidin-4-one]	did not show the potential to restore cell viability	0.14	369.1	1	89.59 ± 2.85	2	61.38±0.91	2	68.98±2.27	2	51.45 ± 1.44	2	62.32 ± 3.54	3	22.26 ± 1.14	2	56.50 ± 1.99	4	15.43 ± 0.32	3	cytotoxicity to PC12 cells [9]: a great influence on the activity of PC12 cells; Relative growth rate (%) 24 h ([9]; PC12, 60 μM): 41.84 ± 0.40%; Rank (cytotoxicity standard) 48 h ([9]; PC12, 60 μM): 4; Relative growth rate (%) 48 h ([9]; PC12, 60 μM): 11.06 ± 0.87%; effect on survival of H2O2-damaged PC12 cells ([1]; 3.75-60 μM drug): failed to show the potential to restore cell viability
COc1cc(/C=C2\CN(C)C/C(=C\c3cc(Cl)c(O)c(OC)c3)C2=O)cc(Cl)c1O [CAK07, 3,5-bis ((E)-3-chloro-4-hydroxy-5-methoxybenzylidene)-1-methylpiperidin-4-one]	did not show the potential to restore cell viability	34.77	197.3	1	99.04 ± 1.89	1	82.45 ± 2.34	1	76.49 ± 0.75	3	46.41±0.69	2	60.78±0.55	3	30.99 ± 0.02	2	53.24 ± 0.51	3	30.46 ± 0.54	3	cytotoxicity to PC12 cells [9]: high; Relative growth rate (%) 24 h ([9]; PC12, 60 μM): 49.53 ± 0.31%; Rank (cytotoxicity standard) 48 h ([9]; PC12, 60 μM): 4; Relative growth rate (%) 48 h ([9]; PC12, 60 μM): 24.20 ± 0.74%; effect on survival of H2O2-damaged PC12 cells ([1]; 7.5 μM drug): a certain cytoprotective effect
